# Results from ChEMBL document CHEMBL3046025, “Fungitoxic Properties of N-Phenylformamidoximes in Control of Benzimidazole-Resistant Isolates of Fungi” (1992).
# Tests used:
# Type in all cases: functional
# [1] = tested on: Botrytis cinerea; test: Antifungal activity against Benzimidalzole-resistant Botryotinia fuckeliana isolate Bc-20 infected compound-treated kidney bean leaves at 50 ppm after 4 days
# [2] = tested on: Botrytis cinerea; test: Antifungal activity against Benzimidalzole-resistant Botryotinia fuckeliana isolate Bc-20 infected compound-treated kidney bean leaves at 200 ppm after 4 days
# [3] = tested on: Cercospora beticola; test: Antifungal activity against Benzimidalzole-resistant Cercospora beticola isolate Cb-19 infected in sugar beet seedlings at 50 ppm applied as soil drench 3 days prior to inoculation
# [4] = tested on: Botrytis cinerea; test: Antifungal activity against Benzimidalzole-resistant Botryotinia fuckeliana isolate Bc-44 infected compound-treated kidney bean leaves at 0.8 ppm after 4 days
Compound,Activity [1] [%],Activity [2] [%],Activity [3] [%],Activity [4] [%]
C#CCOc1c(Cl)cc(N/C=N/OC)cc1Cl,6,11,,
C#CCOc1cc(N/C=N/OC)cc(Cl)c1OCC#C,,,68,75
